In PubChem BioAssay AID2060885 (Molecular Pharmacology Branch, DTP, NCI, 2025):
Where “and” joins values, the source holds several entries; their conditions need not be identical. Equal values may be shown once.

System: NCI-H23 complex spheroids with HUVEC/MSC, viability
Assay: Anticancer human tumor NCI-H23 cell line growth inhibition [RAS];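 further: spheroids exposed to compound for 7 days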;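 on viability, T/C: 100% = DMSO vehicle control viability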
Conditions: for viability, T/C: stronger effect = lower value
Procedure, shortened: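 Tumour cells grown as complex spheroids with HUVEC endothelial cells and mesenchymal stem cells, treated with RAS pathway inhibitor combinations. Each agent spans half-log steps from near clinical Cmax, or 10 microM where Cmax is unknown.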

[1] = curve of first compound, second compound 0.000949 µM
[2] = curve of first compound, second compound 0.003 µM
[3] = curve of first compound, second compound 0.00949 µM
[4] = curve of first compound, second compound 0.03 µM
[5] = curve of first compound, second compound 0.0949 µM
[6] = curve of first compound, second compound 0.3 µM
[7] = second compound 0.000949 µM, first compound 0.00316 µM
[8] = second compound 0.000949 µM, first compound 0.01 µM
[9] = second compound 0.000949 µM, first compound 0.0316 µM
[10] = second compound 0.000949 µM, first compound 0.1 µM
[11] = second compound 0.000949 µM, first compound 0.316 µM
[12] = second compound 0.000949 µM, first compound 1 µM
[13] = second compound 0.003 µM, first compound 0.00316 µM
[14] = second compound 0.003 µM, first compound 0.01 µM
[15] = second compound 0.003 µM, first compound 0.0316 µM
[16] = second compound 0.003 µM, first compound 0.1 µM
[17] = second compound 0.003 µM, first compound 0.316 µM
[18] = second compound 0.003 µM, first compound 1 µM
[19] = second compound 0.00949 µM, first compound 0.00316 µM
[20] = second compound 0.00949 µM, first compound 0.01 µM
[21] = second compound 0.00949 µM, first compound 0.0316 µM
[22] = second compound 0.00949 µM, first compound 0.1 µM
[23] = second compound 0.00949 µM, first compound 0.316 µM
[24] = second compound 0.00949 µM, first compound 1 µM
[25] = second compound 0.03 µM, first compound 0.00316 µM
[26] = second compound 0.03 µM, first compound 0.01 µM
[27] = second compound 0.03 µM, first compound 0.0316 µM
[28] = second compound 0.03 µM, first compound 0.1 µM
[29] = second compound 0.03 µM, first compound 0.316 µM
[30] = second compound 0.03 µM, first compound 1 µM
[31] = second compound 0.0949 µM, first compound 0.00316 µM
[32] = second compound 0.0949 µM, first compound 0.01 µM
[33] = second compound 0.0949 µM, first compound 0.0316 µM
[34] = second compound 0.0949 µM, first compound 0.1 µM
[35] = second compound 0.0949 µM, first compound 0.316 µM
[36] = second compound 0.0949 µM, first compound 1 µM
[37] = second compound 0.3 µM, first compound 0.00316 µM
[38] = second compound 0.3 µM, first compound 0.01 µM
[39] = second compound 0.3 µM, first compound 0.0316 µM
[40] = second compound 0.3 µM, first compound 0.1 µM
[41] = second compound 0.3 µM, first compound 0.316 µM
[42] = second compound 0.3 µM, first compound 1 µM

Nc1ccn(C2OC(CO)C(O)C2(F)F)c(=O)n1 (stereo not drawn) + CCn1c(-c2cc(N3CCN(C)CC3)cnc2C(C)OC)c2c3cc(ccc31)-c1csc(n1)CC(NC(=O)C1CC1C)C(=O)N1CCCC(N1)C(=O)OCC(C)(C)C2
IC50 [1]: < 3.16 nM
IC50 [2]: < 3.16 nM
IC50 [3]: < 3.16 nM
IC50 [4]: < 3.16 nM
IC50 [5]: < 3.16 nM
IC50 [6]: < 3.16 nM
viability, T/C [7]: 16.9%
viability, T/C [8]: 2.1%
viability, T/C [9]: 2.03%
viability, T/C [10]: 1.87%
viability, T/C [11]: 1.82%
viability, T/C [12]: 1.3%
viability, T/C [13]: 12.9%
viability, T/C [14]: 1.96%
viability, T/C [15]: 1.42%
viability, T/C [16]: 1.52%
viability, T/C [17]: 2.04%
viability, T/C [18]: 1.24%
viability, T/C [19]: 12.6%
viability, T/C [20]: 1.87%
viability, T/C [21]: 2.05%
viability, T/C [22]: 1.74%
viability, T/C [23]: 2.15%
viability, T/C [24]: 2.22%
viability, T/C [25]: 12%
viability, T/C [26]: 2.82%
viability, T/C [27]: 2.27%
viability, T/C [28]: 2.33%
viability, T/C [29]: 1.56%
viability, T/C [30]: 1.99%
viability, T/C [31]: 12.2%
viability, T/C [32]: 3.4%
viability, T/C [33]: 3.37%
viability, T/C [34]: 2.4%
viability, T/C [35]: 2.14%
viability, T/C [36]: 2.59%
viability, T/C [37]: 15.5%
viability, T/C [38]: 5.87%
viability, T/C [39]: 3.63%
viability, T/C [40]: 3.14%
viability, T/C [41]: 2.91%
viability, T/C [42]: 3.48%

Nc1ccn(C2OC(CO)C(O)C2(F)F)c(=O)n1 (stereo not drawn) + CCn1c(-c2cccnc2C(C)OC)c2c3cc(ccc31)N1CCOC(CC(NC(=O)C(C(C)C)N(C)C(=O)C3(F)CCN(C(=O)C#CC(C)(C)N(C)C)CC3)C(=O)N3CCCC(N3)C(=O)OCC(C)(C)C2)C1
IC50 [1]: < 3.16 nM
IC50 [2]: < 3.16 nM
IC50 [3]: < 3.16 nM
IC50 [4]: < 3.16 nM
IC50 [5]: < 3.16 nM
IC50 [6]: < 3.16 nM
viability, T/C [7]: 11.4%
viability, T/C [8]: 1.89%
viability, T/C [9]: 1.33%
viability, T/C [10]: 1.32%
viability, T/C [11]: 1.35%
viability, T/C [12]: 1.46%
viability, T/C [13]: 12.7%
viability, T/C [14]: 1.78%
viability, T/C [15]: 1.61%
viability, T/C [16]: 1.5%
viability, T/C [17]: 1.63%
viability, T/C [18]: 2.39%
viability, T/C [19]: 14.5%
viability, T/C [20]: 1.69%
viability, T/C [21]: 2.29%
viability, T/C [22]: 1.8%
viability, T/C [23]: 1.79%
viability, T/C [24]: 1.41%
viability, T/C [25]: 12.3%
viability, T/C [26]: 1.86%
viability, T/C [27]: 1.31%
viability, T/C [28]: 1.39%
viability, T/C [29]: 1.75%
viability, T/C [30]: 1.29%
viability, T/C [31]: 7.86%
viability, T/C [32]: 1.71%
viability, T/C [33]: 1.74%
viability, T/C [34]: 1.51%
viability, T/C [35]: 1.72%
viability, T/C [36]: 1.81%
viability, T/C [37]: 7.88%
viability, T/C [38]: 1.67%
viability, T/C [39]: 1.78%
viability, T/C [40]: 1.28%
viability, T/C [41]: 1.59%
viability, T/C [42]: 1.54%

CCC(CC)c1cc(NC2CCC(N)C2)n2nccc2n1 (stereo not drawn) + C#Cc1c(F)ccc2cc(O)cc(-c3ncc4c(N5CC6CCC(C5)N6)nc(OCC56CCCN5CC(F)C6)nc4c3F)c12
IC50 (curve of first compound, second compound 0.0316 µM): 1800 nM
IC50 (curve of first compound, second compound 0.1 µM): 1780 nM
IC50 (curve of first compound, second compound 0.316 µM): 1680 nM
IC50 (curve of first compound, second compound 1 µM): 1440 nM
IC50 (curve of first compound, second compound 3.16 µM): 1110 nM
IC50 (curve of first compound, second compound 10 µM): < 31.6 nM
viability, T/C (second compound 0.0316 µM, first compound 0.0316 µM): 102%
viability, T/C (second compound 0.0316 µM, first compound 0.1 µM): 129%
viability, T/C (second compound 0.0316 µM, first compound 0.316 µM): 99.8%
viability, T/C (second compound 0.0316 µM, first compound 1 µM): 89.4%
viability, T/C (second compound 0.0316 µM, first compound 3.16 µM): 12.8%
viability, T/C (second compound 0.0316 µM, first compound 10 µM): 1.4%
viability, T/C (second compound 0.1 µM, first compound 0.0316 µM): 109%
viability, T/C (second compound 0.1 µM, first compound 0.1 µM): 127%
viability, T/C (second compound 0.1 µM, first compound 0.316 µM): 104%
viability, T/C (second compound 0.1 µM, first compound 1 µM): 90.9%
viability, T/C (second compound 0.1 µM, first compound 3.16 µM): 9.22%
viability, T/C (second compound 0.1 µM, first compound 10 µM): 1.06%
viability, T/C (second compound 0.316 µM, first compound 0.0316 µM): 113%
viability, T/C (second compound 0.316 µM, first compound 0.1 µM): 128%
viability, T/C (second compound 0.316 µM, first compound 0.316 µM): 98.9%
viability, T/C (second compound 0.316 µM, first compound 1 µM): 83.1%
viability, T/C (second compound 0.316 µM, first compound 3.16 µM): 10.2%
viability, T/C (second compound 0.316 µM, first compound 10 µM): 1.06%
viability, T/C (second compound 1 µM, first compound 0.0316 µM): 108%
viability, T/C (second compound 1 µM, first compound 0.1 µM): 121%
viability, T/C (second compound 1 µM, first compound 0.316 µM): 92%
viability, T/C (second compound 1 µM, first compound 1 µM): 71.6%
viability, T/C (second compound 1 µM, first compound 3.16 µM): 9.15%
viability, T/C (second compound 1 µM, first compound 10 µM): 0.7%
viability, T/C (second compound 3.16 µM, first compound 0.0316 µM): 76.2%
viability, T/C (second compound 3.16 µM, first compound 0.1 µM): 70.1%
viability, T/C (second compound 3.16 µM, first compound 0.316 µM): 57.7%
viability, T/C (second compound 3.16 µM, first compound 1 µM): 55.3%
viability, T/C (second compound 3.16 µM, first compound 3.16 µM): 5.85%
viability, T/C (second compound 3.16 µM, first compound 10 µM): 0.62%
viability, T/C (second compound 10 µM, first compound 0.0316 µM): 36.7%
viability, T/C (second compound 10 µM, first compound 0.1 µM): 45.5%
viability, T/C (second compound 10 µM, first compound 0.316 µM): 41.9%
viability, T/C (second compound 10 µM, first compound 1 µM): 37.9%
viability, T/C (second compound 10 µM, first compound 3.16 µM): 3.49%
viability, T/C (second compound 10 µM, first compound 10 µM): 1.1%

CC(Nc1ccc2c(c1)OCCn1cc(N3C(=O)OCC3C(F)F)nc1-2)C(N)=O (stereo not drawn)
viability, T/C (compound 0.0316 µM): 93.5% [middle of 4 runs]
viability, T/C (compound 0.1 µM): 89.5% [middle of 4 runs]
viability, T/C (compound 0.316 µM): 70.2% and 82.1% and 76.3% (2×)
viability, T/C (compound 1 µM): 78.9% [middle of 4 runs]
viability, T/C (compound 3.16 µM): 71.8% [middle of 4 runs]
viability, T/C (compound 10 µM): 69.6% [middle of 4 runs]
IC50 (curve of compound): > 10000 nM
